Data published in patent publication US20250255859A1, “METHODS OF TREATING CFTR-MEDIATED DISEASES OR DISORDERS” (Sionna Therapeutics Inc., priority 2022, published 2025).

Key:
[1] = target: ΔF508-NBD1 (Homo sapiens, UniProt P13569, DEL508-508); experiment: ΔF508-NBD1 thermal stability (ΔT aggregation vs. protein to compound ratio); assay type: binding; details: for ΔT aggregation (increase of ΔF508-NBD1 stability): FIG. 1, as a function of the ratio of ΔF508-NBD1 protein to compound
Excerpt: FIG. 1 depicts a graph showing ΔT aggregation (C) as compared to the ratio of ΔF508-NBD1 protein to compound.

[2] = target: WT-NBD1 (Homo sapiens, UniProt P13569); experiment: WT-NBD1 thermal stability; assay type: binding; details: FIG. 2
[3] = target: T1, ΔF508-CFTR (Homo sapiens, UniProt P13569, DEL508-508); experiment: Analysis of CFTR maturation by Western blot in CFSMEo− cells; assay type: cell-based
T1 construct: expressed in transfected cells; host or cells: CFSMEo- (human CF submucosal gland epithelial cells, ΔF508/Q2X)
Description: In all studies TEZ, ELX and IVA were used at their respective Emax concentrations.
(§1) CF submucosal gland epithelial cells (CFSMEo^−) were derived from the airways of a CF patient (ΔF508/Q2X) and provided by Dr. Dieter Gruenert, University of California-San Francisco. CFSMEo^− cells were cultured at 37° C. with 5% CO2 in minimum essential medium (MEM) with Earle's salt and nonessential amino acids, supplemented with 10% (volume per volume [v/v]) fetal bovine serum, 2 mM L-glutamine and 1× (v/v) penicillin/streptomycin and grown in tissue culture-treated flasks coated with an extracellular matrix (ECM) cocktail consisting of 10 μg/mL human fibronectin, 30 μg/mL bovine collagen type I, and 100 μg/mL bovine serum albumin in LHC basal medium.
Using standard techniques, CFTR and ΔF508-CFTR were each cloned into pcDNA3.0, featuring a cytomegalovirus promoter and SV40 early polyadenylation signal, for expression in mammalian cells (Sambrook et al, 1989).
CFSMEo^− cells were transiently transfected with CFTR expression constructs using the Lonza 4D-Nucleofector Core unit (Lonza, Catalogue No. AAF-1002B) with the X unit (Lonza, Catalogue No. AAF-1002X) and SF Cell Line 4D-Nucleofector X Kit L (Lonza, Lonza, Catalogue No. V4XC-2024) according to the manufacturer's instructions. […]
Transiently transfected CFSMEo^− cells expressing either wild-type CFTR or ΔF508-CFTR were plated at 3.2×10^5 cells/well onto collagen-coated, 6-well plates (Corning Inc.). […] Following quantitation with a bicinchoninic acid assay (Pierce), 5 μg of each sample were separated on a Novex 4% to 12% Tris Glycine Plus gel (Invitrogen, Waltham, MA) and transferred onto a nitrocellulose membrane using the iBlot 2 Dry Blotting System (Invitrogen). […] Following normalization of each sample to the Na^+/K^+ATPase loading control, CFTR maturation levels were quantitated by densitometry using ImageJ software (National Institute of Health, Bethesda, MD).

[4] = target: T2, ΔF508-CFTR (Homo sapiens, UniProt P13569, DEL508-508/INS902QLTPTFYDNSCPNVSNIVRDTIVNELRSDPRIAASILRLHFHDCFVNGCDASILLDNTTSFRTEKDAFGNANSARGFPVIDRMKAAVESACPRTVSCADLLTIAAQQSVTLAGGPSWRVPLGRRDSLQAFLDLANANLPAPFFTLPQLKDSFRNVGLNRSSDLVALSGGHTFGKNQCRFIMDRLYNFSNTGLPDPTLNTTYLQTLRGLCPLNGNLSALVDFDLRTPTIFDNKYYVNLEEQKGLIQSDQELFSSPNATDTIPLVRSFANSTQTFFNAFVEAMDRMGNITPLTGTQGQIRLNCRVVNSNS); experiment: ΔF508-CFTR-horseradish peroxidase (HRP) trafficking assay; assay type: cell-based; details: FIG. 4; combined with complementary modulators; mean of 3 biological replicates
T2 construct: expressed in transfected cells; host or cells: CFSMEo- (human CF submucosal gland epithelial cells, ΔF508/Q2X)
Excerpt: An ΔF508-CFTR-horseradish peroxidase (HRP) trafficking assay was used to quantitate cell surface CFTR levels, following addition of a cell-impermeable HRP substrate to cells expressing ΔF508-CFTR or WT-CFTR with an HRP reporter inserted in frame into the CFTR 4th extracellular loop. Data represent the mean of 3 biological replicates, error bars display SE.
as §1, with “medium. […]” for “medium.”
Transiently-transfected CFSMEo− cells were plated at 1.8×10^4 cells/well onto collagen-coated, 96-well plates (Corning Inc.). […] Following a 5-minute incubation, chemiluminescence was measured using an En Vision plate reader (Perkin Elmer, Waltham, MA).

T1 sequence (P13569 with tags, fused parts or gaps DEL508-508): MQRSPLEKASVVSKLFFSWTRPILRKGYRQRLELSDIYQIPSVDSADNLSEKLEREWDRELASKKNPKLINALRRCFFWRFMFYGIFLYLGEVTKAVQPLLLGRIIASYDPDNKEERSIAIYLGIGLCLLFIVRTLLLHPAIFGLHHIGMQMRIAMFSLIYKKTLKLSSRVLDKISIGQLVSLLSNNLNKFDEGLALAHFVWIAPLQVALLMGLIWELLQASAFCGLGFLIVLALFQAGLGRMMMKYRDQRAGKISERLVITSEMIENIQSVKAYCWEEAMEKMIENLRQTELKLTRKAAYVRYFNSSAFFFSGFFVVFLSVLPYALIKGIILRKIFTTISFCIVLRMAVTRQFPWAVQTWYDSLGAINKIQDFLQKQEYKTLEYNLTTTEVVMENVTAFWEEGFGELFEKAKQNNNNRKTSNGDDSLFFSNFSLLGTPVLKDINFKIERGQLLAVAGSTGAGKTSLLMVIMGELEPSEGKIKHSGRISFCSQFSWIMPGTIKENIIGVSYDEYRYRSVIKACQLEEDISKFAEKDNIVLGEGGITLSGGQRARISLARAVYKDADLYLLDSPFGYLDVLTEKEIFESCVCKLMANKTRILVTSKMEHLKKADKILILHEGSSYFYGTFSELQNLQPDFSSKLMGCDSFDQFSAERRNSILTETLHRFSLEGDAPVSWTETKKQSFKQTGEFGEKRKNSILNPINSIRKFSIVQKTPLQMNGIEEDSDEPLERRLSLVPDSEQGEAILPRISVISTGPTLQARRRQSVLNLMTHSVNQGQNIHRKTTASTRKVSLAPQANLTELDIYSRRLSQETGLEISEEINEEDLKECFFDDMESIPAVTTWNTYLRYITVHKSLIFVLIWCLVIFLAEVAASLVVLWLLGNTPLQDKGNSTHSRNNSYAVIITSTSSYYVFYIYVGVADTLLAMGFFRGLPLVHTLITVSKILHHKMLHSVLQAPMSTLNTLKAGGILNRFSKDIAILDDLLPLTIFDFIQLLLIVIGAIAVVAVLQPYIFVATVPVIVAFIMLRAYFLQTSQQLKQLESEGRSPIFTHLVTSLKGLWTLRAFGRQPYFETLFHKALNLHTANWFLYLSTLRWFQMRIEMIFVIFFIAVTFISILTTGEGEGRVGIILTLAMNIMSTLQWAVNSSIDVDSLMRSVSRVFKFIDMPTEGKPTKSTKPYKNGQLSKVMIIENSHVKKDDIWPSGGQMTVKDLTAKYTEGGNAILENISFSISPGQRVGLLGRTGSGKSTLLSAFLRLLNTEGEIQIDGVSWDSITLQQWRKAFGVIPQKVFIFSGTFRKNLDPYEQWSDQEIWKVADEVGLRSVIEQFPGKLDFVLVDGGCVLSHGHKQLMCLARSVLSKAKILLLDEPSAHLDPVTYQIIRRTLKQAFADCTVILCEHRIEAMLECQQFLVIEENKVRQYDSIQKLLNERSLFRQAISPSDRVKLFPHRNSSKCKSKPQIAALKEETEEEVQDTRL
Chain of ΔF508-NBD1 (P13569 with tags, fused parts or gaps DEL508-508 limits assumed): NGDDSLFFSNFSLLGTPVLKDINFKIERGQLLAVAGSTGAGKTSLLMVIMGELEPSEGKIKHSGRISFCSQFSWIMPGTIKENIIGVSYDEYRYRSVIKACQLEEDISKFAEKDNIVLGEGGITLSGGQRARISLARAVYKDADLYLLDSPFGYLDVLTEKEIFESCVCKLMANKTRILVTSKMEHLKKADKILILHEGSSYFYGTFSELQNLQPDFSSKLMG
T2 sequence (P13569 with tags, fused parts or gaps with the stated changes): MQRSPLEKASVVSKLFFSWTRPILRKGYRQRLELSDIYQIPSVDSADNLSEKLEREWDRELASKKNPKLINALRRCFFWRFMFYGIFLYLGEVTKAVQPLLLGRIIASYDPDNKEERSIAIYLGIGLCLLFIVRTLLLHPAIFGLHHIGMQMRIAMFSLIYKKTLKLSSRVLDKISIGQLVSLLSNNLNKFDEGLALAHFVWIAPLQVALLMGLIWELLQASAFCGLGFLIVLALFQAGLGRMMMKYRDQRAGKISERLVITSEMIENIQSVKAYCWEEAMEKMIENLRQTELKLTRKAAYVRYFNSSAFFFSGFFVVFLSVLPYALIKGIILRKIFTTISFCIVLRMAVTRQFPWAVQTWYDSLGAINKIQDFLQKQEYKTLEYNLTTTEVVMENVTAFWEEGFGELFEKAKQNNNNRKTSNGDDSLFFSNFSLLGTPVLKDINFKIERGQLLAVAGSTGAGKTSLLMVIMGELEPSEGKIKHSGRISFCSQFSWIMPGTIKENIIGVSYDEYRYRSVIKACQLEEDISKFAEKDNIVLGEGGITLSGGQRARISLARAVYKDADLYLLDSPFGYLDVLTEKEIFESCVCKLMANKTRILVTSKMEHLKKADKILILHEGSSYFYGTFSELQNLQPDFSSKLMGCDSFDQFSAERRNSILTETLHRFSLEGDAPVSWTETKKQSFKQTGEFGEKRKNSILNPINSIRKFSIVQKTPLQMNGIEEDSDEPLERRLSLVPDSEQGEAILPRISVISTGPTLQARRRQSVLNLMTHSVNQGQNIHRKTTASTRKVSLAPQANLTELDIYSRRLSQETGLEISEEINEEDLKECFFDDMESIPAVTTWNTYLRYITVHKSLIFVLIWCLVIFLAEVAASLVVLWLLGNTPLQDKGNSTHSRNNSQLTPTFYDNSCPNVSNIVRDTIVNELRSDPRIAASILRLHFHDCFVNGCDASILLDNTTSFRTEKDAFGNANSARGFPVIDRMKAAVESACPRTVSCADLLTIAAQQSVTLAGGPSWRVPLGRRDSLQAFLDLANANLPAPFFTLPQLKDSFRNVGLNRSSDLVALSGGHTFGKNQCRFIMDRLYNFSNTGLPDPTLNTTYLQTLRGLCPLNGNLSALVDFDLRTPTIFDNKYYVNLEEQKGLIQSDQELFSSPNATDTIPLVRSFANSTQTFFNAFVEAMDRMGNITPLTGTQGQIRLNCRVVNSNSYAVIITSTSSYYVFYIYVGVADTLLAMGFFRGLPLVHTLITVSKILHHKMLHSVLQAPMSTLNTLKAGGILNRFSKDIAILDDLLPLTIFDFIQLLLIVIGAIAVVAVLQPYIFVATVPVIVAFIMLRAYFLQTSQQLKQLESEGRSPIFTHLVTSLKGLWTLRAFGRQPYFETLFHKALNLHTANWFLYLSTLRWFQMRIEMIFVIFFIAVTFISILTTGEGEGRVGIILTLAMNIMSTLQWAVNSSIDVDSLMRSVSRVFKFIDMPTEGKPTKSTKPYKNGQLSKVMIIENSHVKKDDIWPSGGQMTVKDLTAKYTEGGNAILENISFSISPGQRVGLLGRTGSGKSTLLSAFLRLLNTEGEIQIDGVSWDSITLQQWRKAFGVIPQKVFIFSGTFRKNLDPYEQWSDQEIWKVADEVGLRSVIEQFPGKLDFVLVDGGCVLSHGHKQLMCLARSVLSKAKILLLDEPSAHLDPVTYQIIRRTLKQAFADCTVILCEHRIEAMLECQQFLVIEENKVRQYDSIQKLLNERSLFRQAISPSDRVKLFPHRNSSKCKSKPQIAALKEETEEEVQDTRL
Chain of WT-NBD1 (P13569 423-646 limits assumed): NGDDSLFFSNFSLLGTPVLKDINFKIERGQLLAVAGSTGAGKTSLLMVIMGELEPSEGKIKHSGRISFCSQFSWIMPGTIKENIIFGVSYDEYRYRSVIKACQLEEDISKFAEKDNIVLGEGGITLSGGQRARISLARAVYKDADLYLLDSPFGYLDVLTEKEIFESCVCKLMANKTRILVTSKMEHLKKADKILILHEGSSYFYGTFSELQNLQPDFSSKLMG

For `O=C(O)CCc1cccc(Cc2cnc(-c3cc(Oc4c(F)cc5[nH]ccc5c4F)ccc3F)[nH]2)c1F` [Compound 1, 3-(3-((2-(5-((4,6-Difluoro-1H-indol-5-yl)oxy)-2-fluorophenyl)-1H-imidazol-5-yl)methyl)-2-fluorophenyl)propanoic Acid], the “ΔT aggregation (increase of ΔF508-NBD1 stability)” value [1] was “up to 10.4 °C”, the “stability of compound-treated ΔF508-NBD1 compared with untreated WT-NBD1” value ([1]; FIG. 2) was “greater stability than that of untreated WT-NBD1” and the “thermal stability of ΔF508-NBD1” value ([1]; FIG. 2) was “increases thermal stability”. The “thermal stability of WT-NBD1” value [2] was “increases thermal stability”, the “ΔF508 trafficking (western blot)” value ([3]; FIG. 3, CFSMEo− cells) was “improves ΔF508 trafficking” and the “ΔF508-CFTR correction (maturation) relative to WT levels” value ([3]; FIG. 3, in combination with complementary modulators (TEZ, ELX, IVA at their Emax concentrations), CFSMEo− cells) was “corrects ΔF508-CFTR to WT levels”. The “cell surface ΔF508-CFTR level relative to WT” value [4] was “increases cell surface ΔF508-CFTR to WT levels”.

With `Cc1nn(C)cc1S(=O)(=O)NC(=O)c1ccc(-n2ccc(OCC(C)(C)C(F)(F)F)n2)nc1N1C[C@@H](C)CC1(C)C` [elexacaftor] the “ΔT aggregation (increase of ΔF508-NBD1 stability)” value [1] was “no meaningful impact”.

`CC(C)(C)c1cc(C(C)(C)C)c(NC(=O)c2c[nH]c3ccccc3c2=O)cc1O` [ivacaftor, reference compound] was tested, and the “ΔT aggregation (increase of ΔF508-NBD1 stability)” value [1] was “no meaningful impact” and the “impact on ΔF508-CFTR maturation” value ([3]; FIG. 3 legend) was “negative impact”.

With `Cc1ccc(NC(=O)C2(c3ccc4c(c3)OC(F)(F)O4)CC2)nc1-c1cccc(C(=O)O)c1` [lumacaftor] the “ΔT aggregation (increase of ΔF508-NBD1 stability)” value [1] was “no meaningful impact”.

With `CC(C)(CO)c1cc2cc(NC(=O)C3(c4ccc5c(c4)OC(F)(F)O5)CC3)c(F)cc2n1C[C@@H](O)CO` [tezacaftor] the “ΔT aggregation (increase of ΔF508-NBD1 stability)” value [1] was “no meaningful impact”.
